Experimental data taken from EPA's ToxValDB 9.5 (doi:10.2903/j.efsa.2014.3873).
≈ marks a conversion by molar mass, not a printed value.

Columns and labels:
Apis mellifera = settings: acute; dermal; mortality
Bibionidae = settings: chronic/long-term; duration: 28 days; other
Daphnia magna = settings: chronic/long-term, duration: 21 days
Rattus norvegicus = settings: for NOAEL: clinical signs
Adalia sp. = test: LR50; higher = less toxic; settings: acute; duration: 48 hours; mortality

**Q.** How did the LD50 (Apis mellifera) turn out when `CC(C)[C@H](C(=O)O[C@H](C#N)c1cccc(Oc2ccccc2)c1)c1ccc(Cl)cc1` [Esfenvalerate] was run?
**A.** The LD50 was 0.06 µg/piece.

**Q.** And the NOEC (Bibionidae)?
**A.** The NOEC was 0.16 µg/L.

**Q.** And the LD50 (Colinus virginianus; acute, oral, mortality)?
**A.** The LD50 was 1310 mg/kg-day.

**Q.** And the NOEC (Colinus virginianus; reproduction developmental)?
**A.** The NOEC was 18.7 mg/kg-day.

**Q.** What about the NOEC (Daphnia magna) of the same molecule?
**A.** The NOEC was 0.052 µg/L.

**Q.** What about the NOEC (Daphnia magna; reproduction) of the same molecule?
**A.** Its NOEC is 0.0038 µg/L.

**Q.** What about the LC50 (Oncorhynchus mykiss; acute, duration: 96 hours, mortality) of the same molecule?
**A.** Its LC50 is 0.1 ng/mL (≈ 0.238 nM).

**Q.** And the NOEC (Oncorhynchus mykiss; chronic/long-term, duration: 21 days)?
**A.** Its NOEC is 0.001 µg/L.

**Q.** And the NOAEL (Rattus norvegicus; acute)?
**A.** Its NOAEL is 1.75 mg/kg-day.

**Q.** And the LD50 (Rattus norvegicus; acute, oral, mortality)?
**A.** Its LD50 is 88.5 mg/kg.

**Q.** And the NOAEL (Rattus norvegicus; chronic)?
**A.** Its NOAEL is 1.75 mg/kg-day.

**Q.** And the LC50 (Tagia sp.; acute, mortality)?
**A.** The LC50 was 10.6 mg/kg.

**Q.** What about the NOEC (Tagia sp.; chronic/long-term) of the same molecule?
**A.** The NOEC was 1.1 mg/kg.

**Q.** And the LR50 (Adalia sp.)?
**A.** Its LR50 is 0.291 g/ha.
